The results in this text go back to US11352350B2, “IRAK degraders and uses thereof” (Kymera Therapeutics, Inc., priority 2018, dated 2022).

Type in all cases: cell-based
Experiment [1] deals with OCI-LY10. Description: OCI-LY10 viability, CTG. The conditions noted are these: for IC50: Homo sapiens, OCI-Ly10.
Experiment [2] deals with TNFα. Description: Human PBMC LPS TNFα assay. To be noted: hPBMC, LPS stimulation, read-out: IRAK4 hPBMC LPS TNF-α inhibition: Average external-IC50. The gist of the method:
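Thawed human PBMCs (200,000/well) were pretreated 20 h at 37 °C with compound (8-point, 5-fold dilutions from 2 μM), then stimulated with 100 ng/ml LPS for 5 h. Supernatant TNFα was measured by MSD V-plex, normalized to LPS-stimulated and unstimulated controls, and IC50 obtained by free-fit 4-parameter logistic regression.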

Experiment [3] deals with T1, IRAK4 (Homo sapiens (Human), UniProt Q9NWZ3). Nature of the experiment: IRAK4 degradation in human whole blood monocyte - flow cytometry. The conditions noted are these: read-out: IRAK4 degradation in whole blood monocyte-Flow cytometry: Average external Abs IC50. The gist of the method: (§1)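 Fresh heparinized human whole blood dosed (10-point, 5-fold, 0.1% DMSO) for 20 h or 4 h at 37 °C, then fixed, stained and IRAK4 MFI quantified by flow in CD14+ monocytes and CD14− lymphocytes. DC50 and Dmax via 4-parameter logistic fit normalized to DMSO and 10 μM control.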

The target of experiment [4] is T1, IRAK4. Nature of the experiment: IRAK4 MSD degradation in OCI-LY10. The conditions noted are these: for DC50: OCI-LY10, 4 hrs, MSD, read-out: IRAK4 MSD degradation in OCI-LY10 at 4 hrs: Average external-Abs DC50. The gist of the method:
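Remaining IRAK4 quantified by electrochemiluminescent MSD sandwich assay with two anti-IRAK4 antibodies. Compounds were dosed as 8 concentrations in 1:3 steps from a 1 to 10 μM final top on OCI-LY10 cells, incubated 4 to 24 h at 37° C. under 5% CO2. DC50 fitted with a three-parameter logistic curve.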

Experiment [5] deals with T1, IRAK4. Description: IRAK4 degradation in human whole blood lymphocyte - flow cytometry. The conditions noted are these: read-out: IRAK4 degradation in whole blood lymphocyte-Flow cytometry: Average external Abs IC50. The gist of the method: as §1
(Flow cytometry measures light scatter and fluorescence of single cells or particles in a stream.)

Where two headings read alike, the source gives them in different places. Bounds are passed on as bounds.

T1 sequence (Q9NWZ3 whole entry): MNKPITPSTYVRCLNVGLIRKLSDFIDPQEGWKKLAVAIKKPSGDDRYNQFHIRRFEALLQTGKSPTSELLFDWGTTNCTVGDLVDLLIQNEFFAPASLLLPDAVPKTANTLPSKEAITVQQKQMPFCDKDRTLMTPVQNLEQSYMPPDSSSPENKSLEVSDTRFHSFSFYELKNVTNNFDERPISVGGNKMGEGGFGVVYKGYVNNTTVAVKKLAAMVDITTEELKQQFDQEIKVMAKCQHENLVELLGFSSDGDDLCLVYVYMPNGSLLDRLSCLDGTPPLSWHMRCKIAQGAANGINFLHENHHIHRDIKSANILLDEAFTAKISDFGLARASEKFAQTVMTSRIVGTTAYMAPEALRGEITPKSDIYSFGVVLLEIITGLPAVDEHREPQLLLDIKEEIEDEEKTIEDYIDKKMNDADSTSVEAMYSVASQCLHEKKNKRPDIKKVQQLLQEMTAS

In the case of `CN(CCCOCCCc1cccc2c1n(C)c(=O)n2C1CCC(=O)NC1=O)C[C@H]1CC[C@H](n2cc(NC(=O)c3coc(-c4ccnc(NCC5CC5)c4)n3)c(C(F)F)n2)CC1` (mixture of isomers) [I-30, 2-[2-(Cyclopropylmethylamino)-4-pyridyl]-N-[3-(difluoromethyl)-1-[4-[[3-[3-[1-(2,6-dioxo-3-piperidyl)-3-methyl-2-oxo-benzimidazol-4-yl]propoxy]propyl-methyl-amino]methyl]cyclohexyl]pyrazol-4-yl] oxazole-4-carboxamide], the “Cell Titer Glo assay, combination effect” value in experiment [1] (combination of ibrutinib and degrader I-30 (FIG. 12B)) was “synergism”. Moreover, the IC50 (as a rule, the midpoint of a concentration-inhibition curve) was 50 to 100 nM in experiment [2] and less than 50 nM in experiment [3]. Besides, the DC50 was less than 10 nM in experiment [4] and less than 50 nM in experiment [5]. Besides, the “depletion of IRAK4 in MYD88 mutant lymphoma cell lines” value in experiment [4] (OCI-LY10 and TMD8, FIGS. 1-3 and 10) is “potent depletion of IRAK4”.

As to `CN(C[C@H]1CC[C@H](n2cc(NC(=O)c3coc(-c4ccnc(NCC5CC5)c4)n3)c(C(F)F)n2)CC1)C1CCN(Cc2cccc3c2n(C)c(=O)n3C2CCC(=O)NC2=O)CC1` (stereo partly drawn) [I-75, 2-(2-((cyclopropylmethyl)amino)pyridin-4-yl)-N-(3-(difluoromethyl)-1-((1r,4r)-4-(((1-((1-(2,6-dioxopiperidin-3-yl)-3-methyl-2-oxo-2,3-dihydro-1H-benzo[d]imidazol-4-yl)methyl)piperidin-4-yl)(methyl)amino)methyl)cyclohexyl)-1H-pyrazol-4-yl)oxazole-4-carboxamide], the IC50 in experiment [1] (MYD88 MUT, read-out: OCI-LY10 CTG IC50) was 11 nM; in experiment [1] (MYD88 Mutant Lines, read-out: OCI-LY10 Viability, CTG IC50), 11 nM; in experiment [2], less than 50 nM. Moreover, the DC50 in experiment [3] was 50 to 100 nM; in experiment [4], less than 10 nM; in experiment [5], 50 to 100 nM.
